In general, EC50 refers to the midpoint of the concentration-response curve.

Results on three molecules are retold here after patent US20250325684A1, “POTENT ANTI-CANCER CYCLOTIDES” (University of Southern California, priority 2022, published 2025).

“Also recorded” adds a separate entry of the source. Numbered stars: 1 amine (or outer) side, 2 acyl side, 3 side chain; on linkers, the order of the positions; unused ones are H or OH. Bridge positions count the residues as written; N and C are the ends. Square brackets hold non-standard residues; d marks the D form. Peptide text beside a SMILES is read from it. I, II: the chains in the order shown. X1 = O=C(CCc1cn(CCOCCOCCOCCC(=O)[*:2])nn1)[*:1]; isoGln = NC(=O)[C@H](CCC(=O)[*:2])N[*:1] Bounds are passed on as bounds.

One test deals with MSCLC 494. Kind of test: MTT cell viability, MSCLC 494 cells. It counts as cell-based. Particulars: MSCLC 494 murine small cell lung cancer. The protocol: (§1) Cell viability assay in several human cancer cell lines (See Tables 1 to 10). Cell lines were cultured in RPMI 1640 (or recommended medium when indicated) medium supplemented with 10% fetal calf serum, penicillin (50 IU/mL) and streptomycin ([…]) at 37° C. in 5% CO2. Cell viability studies was carried using the MTT (3-(4,5-dimethylthiazol-2-yl)-2,5-diphenyltetrazolium bromide) assay as previously described (31). Briefly, ≈2×10^3 CRC cells were be seeded in 96-well microtiter plates in 100 μL RPMI 1640 in the presence of 10% calf serum. […] After 1 h, 210 μL/well of full complemented media was added, the cells were grown for 48 h and then treated with 20 μL of a solution of MTT (5 mg/mL) for 2 h. The medium was discarded and DMSO ([…]) was added to each well and incubated with gentle shaking for 20 min at room temperature. The absorbance at 595 nm of the solution is analyzed using a Tecan Genios Multifunctional Microplate Reader (Tecan System Inc) and the background at 670 nm subtracted. RNA-Seq analysis was performed using state-of-the-art bioinformatics tools. Briefly, raw RNA-Seq reads were mapped to human genome (hg38) using STAR aligner (v2.7.3a). Gencode Release 36 reference was used for annotation. Transcript and gene expression levels were quantified using the IsoEM (37) with default parameters. Counts per million (CPM) method is used for normalization. Differential expression was done using DESeq2 with default parameters. Genes involved in different biological pathways (human) were searched from Geneontology (http://geneontology.org/). Bioinformatics results can be validated by using Partek Flow (v10.0.21.0912), a bioinformatics pipeline developed by Zymo Research (https://www.zymoresearch.com/).
(§2) Cell viability was evaluated using the MTT assay as described above.

Another test concerns 4T1. Kind of test: MTT cell viability, 4T1 cells. It counts as cell-based. The following applies: 4T1 murine breast cancer, p53 WT. The protocol: as §1, with “Counts per million (CPM) method is used for normalization. Differential expression was done using DESeq2 with default parameters. Genes involved in different biological pathways (human) were searched from Geneontology (http://geneontology.org/). Bioinformatics results can be validated by using Partek Flow (v10.0.21.0912), a bioinformatics pipeline developed by Zymo Research (https://www.zymoresearch.com/).” left out
as §2

In another test the test system is HL-60. Kind of test: MTT cell viability, HL-60 cells. It counts as cell-based, human. Particulars: HL-60 adult acute myeloid leukemia, p53 Null. How it is done:
as §1, with “Counts per million (CPM) method is used for normalization. Differential expression was done using DESeq2 with default parameters. Genes involved in different biological pathways (human) were searched from Geneontology (http://geneontology.org/). Bioinformatics results can be validated by using Partek Flow (v10.0.21.0912), a bioinformatics pipeline developed by Zymo Research (https://www.zymoresearch.com/).” left out
as §2

The next test relates to MOLM-13. The test is described as follows: MTT cell viability, MOLM-13 cells. Particulars: MOLM-13 adult acute myeloid leukemia, p53 WT. It counts as cell-based, human. How it is done: as §1, §2
A further test has as its system NCl-A549. Kind of test: MTT cell viability, NCl-A549 cells. It counts as cell-based, human. Particulars: NCl-A549 lung adenocarcinoma, p53 WT. The protocol: as §1, §2
Another test concerns NCl-H292. The test is described as follows: MTT cell viability, NCl-H292 cells. It is filed as cell-based, human. The following applies: NCl-H292 lung mucoepidermoid carcinoma, p53 WT. How it is done: as §1, with “Counts per million (CPM) method is used for normalization. Differential expression was done using DESeq2 with default parameters. Genes involved in different biological pathways (human) were searched from Geneontology (http://geneontology.org/). Bioinformatics results can be validated by using Partek Flow (v10.0.21.0912), a bioinformatics pipeline developed by Zymo Research (https://www.zymoresearch.com/).” left out
as §2

For another test, the system named is NCl-H23. Kind of test: MTT cell viability, NCl-H23 cells. Particulars: NCl-H23 lung adenocarcinoma, p53 Mutant. It counts as cell-based, human. How it is done:
as §1, §2

The next test concerns NCl-H522. Kind of test: MTT cell viability, NCl-H522 cells. It is filed as cell-based, human. The following applies: NCl-H522 lung adenocarcinoma, p53 Mutant (Deletion). How it is done:
as §1, §2

In the next test the test system is HCT116^+/+. Kind of test: MTT cell viability, HCT116 p53 wild-type cells. It counts as cell-based, human. The following applies: HCT116^+/+ colon carcinoma, p53 WT; MTT; read-out: EC50. How it is done: as §1, §2
A further test has as its system HCT116^−/−. The test is described as follows: MTT cell viability, HCT116 p53-null cells. It counts as cell-based, human. The following applies: HCT116^−/− colon carcinoma, p53 Null; MTT; read-out: EC50. How it is done: as §1, with “Counts per million (CPM) method is used for normalization. Differential expression was done using DESeq2 with default parameters. Genes involved in different biological pathways (human) were searched from Geneontology (http://geneontology.org/). Bioinformatics results can be validated by using Partek Flow (v10.0.21.0912), a bioinformatics pipeline developed by Zymo Research (https://www.zymoresearch.com/).” left out
as §2

The subject of test [1] is p53, FOXO3a, RUNX3, ATF3, DYRK2 and HIPK2 in HCT116 cell lines. The test is described as follows: Stabilization of Hdm2/HdmX E3 ligase substrates in HCT116 cell lines. It is filed as cell-based, human. The following applies: HCT116 cell lines with p53-wt and -null phenotype; listed as MCo-52-2-cTAT. How it is done: Stabilization of p53 could be observed just 8 h after treating the cells with the bioactive cyclotide (FIG. 5B), likely indicating the cyclotide crosses the cellular membrane into the cytosol through an endocytic mechanism as previously described for this type of microproteins (30, 31). […] These transcription factors (ATF3, FOXO3a and RUNX3) and kinases (DYRK2 and HIPK2) have been described to be regulated by the E3 ligase activity of Hdm2/HdmX (6). […] In both cases the peptide was able to inhibit tumor growth by 60% (HCT116-nude mice) and 80% (CT26-Balb/c mice) (FIG. 7).

The test system of another test is HCT116 xenografts. Kind of test: HCT116 xenograft in nude mice. It is filed as in vivo, mouse. Particulars: two murine models of colorectal carcinoma. The protocol: Mice xenografts studies. HCT116 p53^−/− and CT26 xenografts were established by injecting 100 uL suspension of basal RPMI containing 0.5×10^6 cells into the rear right flanks of female nude mice (nu/nu) mice (HCT116) or Balb/C (CT26). When tumors reached an average volume of ≈100 mm^3, cohorts (n≥4) were treated with vehicle (5% dextrose in water, D5W), MCo-52-2-cTAT (40 mg/kg), or Nutlin-3 (20 mg/kg, […]) once daily for up to 38 days by intravenous injection (MCo-52-2-cTAT and vehicle) or by intraperitoneal administration (Nutlin-3) for HCT116 xenografts; or with vehicle (D5W), MCo-52-2-cTAT (25 mg/kg) three times per week by intraperitoneal injection. Compounds were prepared in a D5W at a final volume of 50 μL (peptide) or 100 μL (Nutlin-3). […] Individual weights were recorded thrice weekly, comparing the control and treatment groups as an additional indicator of tolerance of drug treatment as well as providing the average weight for calculation of drug dosing. Tumor size was measured with calipers. Tumor volume was calculated by measuring tumor size in two dimensions and applying those measurements to the calculation V=d^2×D/2, where d and D equal to the smaller and larger of the two measurements, respectively. […]

As to `COc1ccc(C2=N[C@@H](c3ccc(Cl)cc3)[C@@H](c3ccc(Cl)cc3)N2C(=O)N2CCNC(=O)C2)c(OC(C)C)c1` [Nutlin 3A], the EC50 in the test with MSCLC 494 was more than 100 µM; in the test with 4T1, 28.5 ± 8.6 µM; in the test on HL-60, 33.3 ± 4.4 µM; in the test with MOLM-13, 1.4 ± 0.1 µM; with NCl-A549, 6.6 ± 0.7 µM; in the test on NCl-H292, 19.2 ± 2.9 µM. The EC50 in the test on NCl-H23 and in the test with NCl-H522 was more than 50 µM throughout.
For `N=C(N)NCCC[C@@H]1NC(=O)[C@@H](CCCNC(=N)N)NC(=O)[C@H](CCCCN)NC(=O)[C@@H](N)CCCCNC(=O)CC[C@@H](C(=O)O)NC(=O)[C@@H](CCCNC(=N)N)NC(=O)[C@H](CCCNC(=N)N)NC(=O)[C@@H](CCCCN)NC(=O)[C@H](CCCCN)NC(=O)[C@@H](CCCNC(=N)N)NC(=O)CNC(=O)[C@@H](CCCNC(=N)N)NC1=O` [cTAT] (H-KK[dR]R[dR]G[dR]K[dK]R[dR]E-OH; lactam 1-12; N-terminus and C-terminus assumed), the EC50 in the test on HCT116^+/+, in the test with HCT116^−/−, in the test on MSCLC 494, in the test with 4T1, in the test on HL-60 and in the test with MOLM-13 was more than 100 µM throughout. For the same molecule, the EC50 in the test with NCl-A549, in the test on NCl-H292, in the test with NCl-H23 and in the test on NCl-H522 was more than 100 µM each time.
On to “I: cyclo(ACICRHDSYCGSGSDGGVCPNLYLLCRRDKDCPG) / II: KK[dR]R[dR]G[dR]K[dK]R[dR][isoGln] (disulfide I:2-I:19, I:4-I:26, I:10-I:32; linker I:30-II:N via X1; lactam II:1-II:C) [Cyclotide 52-2-cTAT]”, for which, in the test with HCT116^+/+, the EC50 came out at 10.9 ± 1.3 µM. The “Stabilization of transcription factors and kinases” value in [1] was “stabilize ATF3, FOXO3a, RUNX3, DYRK2 and HIPK2; also recorded: stabilizes transcription factors p53, FOXO3a, RUNX3, ATF3, and kinases DYRK2 and HIPK2”. The “p53 expression on tumor tissue (western blotting)” value with HCT116 xenografts is “stabilizes p53 expression on tumor tissue”.
